Laboratory results reported in ChEMBL document CHEMBL4229455, “Synthesis and anticancer activity of novel bisindolylhydroxymaleimide derivatives with potent GSK-3 kinase inhibition” (Bioorg Med Chem, 2018).

Experiments:
Type in all cases: functional
NCI/ADR-RES = assay: Cytotoxicity against human NCI-ADR-RES cells assessed as cell growth at 1 uM after 48 hrs by SRB assay relative to control; details: read-out: Activity
OVCAR-3 [1] = assay: Cytotoxicity against human OVCAR3 cells after 48 hrs by SRB assay; details: OVCAR-3, 48 h
NCI-H460 [2] = assay: Cytotoxicity against human NCI-H460 cells assessed as cell growth at 0.1 uM after 48 hrs by SRB assay relative to control; details: NCI-H460, 48 h, read-out: Activity
SF-268 [3] = assay: Cytotoxicity against human SF268 cells assessed as cell growth at 0.01 uM after 48 hrs by SRB assay relative to control; details: SF-268, 48 h, read-out: Activity
SF-539 = assay: Cytotoxicity against human SF539 cells assessed as cell growth at 1 uM after 48 hrs by SRB assay relative to control; details: SF-539, 48 h, read-out: Activity
SF-295 = assay: Cytotoxicity against human SF295 cells after 48 hrs by SRB assay; details: SF-295, 48 h; for CC50: read-out: LC50 (the source's name)
A549 [4] = assay: Cytotoxicity against human A549 cells assessed as cell growth at 1 uM after 48 hrs by SRB assay relative to control; details: A549, 48 h, read-out: Activity
NCI-H460 [5] = assay: Cytotoxicity against human NCI-H460 cells assessed as cell growth at 100 uM after 48 hrs by SRB assay relative to control; details: NCI-H460, 48 h, read-out: Activity
ACHN = assay: Cytotoxicity against human ACHN cells assessed as cell growth at 1 uM after 48 hrs by SRB assay relative to control; details: read-out: Activity
K562 [6] = assay: Cytotoxicity against human K562 cells assessed as cell growth at 100 uM after 48 hrs by SRB assay relative to control; details: K562, 48 h, read-out: Activity
SK-MEL-28 = assay: Cytotoxicity against human SK-MEL-28 cells assessed as cell growth at 100 uM after 48 hrs by SRB assay relative to control; details: SK-MEL-28, 48 h, read-out: Activity
RXF 393 = assay: Cytotoxicity against human RXF393 cells assessed as cell growth at 0.01 uM after 48 hrs by SRB assay relative to control; details: RXF 393, 48 h, read-out: Activity
MDA-MB-468 = assay: Cytotoxicity against human MDA-MB-468 cells assessed as cell growth at 0.01 uM after 48 hrs by SRB assay relative to control; details: MDA-MB-468, 48 h, read-out: Activity
K562 [7] = assay: Cytotoxicity against human K562 cells assessed as cell growth at 0.1 uM after 48 hrs by SRB assay relative to control; details: K562, 48 h, read-out: Activity
M14 = assay: Cytotoxicity against human M14 cells after 48 hrs by SRB assay; details: M14, 48 h
NCI-H23 = assay: Cytotoxicity against human NCI-H23 cells assessed as cell growth at 100 uM after 48 hrs by SRB assay relative to control; details: NCI-H23, 48 h, read-out: Activity
UACC-257 = assay: Cytotoxicity against human UACC257 cells assessed as cell growth at 100 uM after 48 hrs by SRB assay relative to control; details: UACC-257, 48 h, read-out: Activity
SNB-75 = assay: Cytotoxicity against human SNB75 cells assessed as cell growth at 0.1 uM after 48 hrs by SRB assay relative to control; details: SNB-75, 48 h, read-out: Activity
CAKI-1 = assay: Cytotoxicity against human Caki1 cells assessed as cell growth at 1 uM after 48 hrs by SRB assay relative to control; details: CAKI-1, 48 h, read-out: Activity
SK-OV-3 [8] = assay: Cytotoxicity against human SKOV3 cells assessed as cell growth at 0.1 uM after 48 hrs by SRB assay relative to control; details: SK-OV-3, 48 h, read-out: Activity
TK-10 = assay: Cytotoxicity against human TK10 cells assessed as cell growth at 100 uM after 48 hrs by SRB assay relative to control; details: TK-10, 48 h, read-out: Activity
SK-OV-3 [9] = assay: Cytotoxicity against human SKOV3 cells assessed as cell growth at 1 uM after 48 hrs by SRB assay relative to control; details: SK-OV-3, 48 h, read-out: Activity
COLO 205 = assay: Cytotoxicity against human COLO205 cells after 48 hrs by SRB assay; details: COLO 205, 48 h
HL-60(TB) = assay: Cytotoxicity against human HL-60(TB) cells assessed as cell growth at 0.01 uM after 48 hrs by SRB assay relative to control; details: HL-60, 48 h, read-out: Activity
OVCAR-5 = assay: Cytotoxicity against human OVCAR5 cells assessed as cell growth at 0.1 uM after 48 hrs by SRB assay relative to control; details: OVCAR-5, 48 h, read-out: Activity
HT-29 = assay: Cytotoxicity against human HT-29 cells assessed as cell growth at 100 uM after 48 hrs by SRB assay relative to control; details: HT-29, 48 h, read-out: Activity
A549 [10] = assay: Cytotoxicity against human A549 cells assessed as cell growth at 0.1 uM after 48 hrs by SRB assay relative to control; details: A549, 48 h, read-out: Activity
SK-MEL-5 = assay: Cytotoxicity against human SK-MEL-5 cells assessed as cell growth at 100 uM after 48 hrs by SRB assay relative to control; details: SK-MEL-5, 48 h, read-out: Activity
NCI-H522 = assay: Cytotoxicity against human NCI-H522 cells assessed as cell growth at 0.1 uM after 48 hrs by SRB assay relative to control; details: NCI-H522, 48 h, read-out: Activity
IGROV-1 = assay: Cytotoxicity against human IGROV1 cells assessed as cell growth at 1 uM after 48 hrs by SRB assay relative to control; details: IGROV-1, 48 h, read-out: Activity
NCI-H226 [11] = assay: Cytotoxicity against human NCI-H226 cells assessed as cell growth at 0.01 uM after 48 hrs by SRB assay relative to control; details: NCI-H226, 48 h, read-out: Activity
NCI-H226 [12] = assay: Cytotoxicity against human NCI-H226 cells assessed as cell growth at 0.1 uM after 48 hrs by SRB assay relative to control; details: NCI-H226, 48 h, read-out: Activity
HOP-92 = assay: Cytotoxicity against human HOP92 cells after 48 hrs by SRB assay; details: HOP-92, 48 h; for CC50: read-out: LC50 (the source's name)
MCF7 = assay: Cytotoxicity against human MCF7 cells assessed as cell growth at 100 uM after 48 hrs by SRB assay relative to control; details: MCF7, 48 h, read-out: Activity
SF-268 [13] = assay: Cytotoxicity against human SF268 cells assessed as cell growth at 100 uM after 48 hrs by SRB assay relative to control; details: SF-268, 48 h, read-out: Activity
OVCAR-3 [14] = assay: Cytotoxicity against human OVCAR3 cells assessed as cell growth at 0.01 uM after 48 hrs by SRB assay relative to control; details: OVCAR-3, 48 h, read-out: Activity

## N#CCCCCCn1cc(C2=C(c3cn(CCCCCC#N)c4ccccc34)C(=O)N(O)C2=O)c2ccccc21
NCI/ADR-RES
  growth at 1 µM: 102%
OVCAR-3 [1]
  GI50: 3.81 µM
  LC50: > 100 µM
  TGI: 19 µM
NCI-H460 [2]
  growth at 0.1 µM: 104%
SF-268 [3]
  growth at 0.01 µM: 97%
SF-539
  growth at 1 µM: 93%
SF-295
  GI50: 5.93 µM
  TGI: 31.4 µM
  CC50: > 100 µM
A549 [4]
  growth at 1 µM: 100%
NCI-H460 [5]
  growth at 100 µM: -26%
ACHN
  growth at 1 µM: 88%
K562 [6]
  growth at 100 µM: 3%
SK-MEL-28
  growth at 100 µM: 4%
RXF 393
  growth at 0.01 µM: 96%
MDA-MB-468
  growth at 0.01 µM: 106%
K562 [7]
  growth at 0.1 µM: 91%
M14
  GI50: 4.42 µM
  LC50 (concentration killing 50% of cells): > 100 µM
  TGI: 34 µM
NCI-H23
  growth at 100 µM: 1%
UACC-257
  growth at 100 µM: -19%
SNB-75
  growth at 0.1 µM: 72%
CAKI-1
  growth at 1 µM: 93%
SK-OV-3 [8]
  growth at 0.1 µM: 88%
TK-10
  growth at 100 µM: 12%
SK-OV-3 [9]
  growth at 1 µM: 86%
COLO 205
  GI50: 17.7 µM
  LC50: > 100 µM
  TGI: 58.7 µM
HL-60(TB)
  growth at 0.01 µM: 98%
OVCAR-5
  growth at 0.1 µM: 89%
HT-29
  growth at 100 µM: -33%
A549 [10]
  growth at 0.1 µM: 102%
SK-MEL-5
  growth at 100 µM: -80%
NCI-H522
  growth at 0.1 µM: 86%
IGROV-1
  growth at 1 µM: 104%
NCI-H226 [11]
  growth at 0.01 µM: 95%
NCI-H226 [12]
  growth at 0.1 µM: 96%
HOP-92
  GI50: 5.03 µM
  TGI: > 100 µM
  CC50: > 100 µM
MCF7
  growth at 100 µM: -14%
SF-268 [13]
  growth at 100 µM: 8%
OVCAR-3 [14]
  growth at 0.01 µM: 99%

## Cn1cc(C2=C(c3cn(C)c4ncccc34)C(=O)NC2=O)c2ccccc21
NCI/ADR-RES
  growth at 1 µM: 91%
OVCAR-3 [1]
  GI50: 4.49 µM
  TGI: 36.8 µM
NCI-H460 [2]
  growth at 0.1 µM: 97%
SF-268 [3]
  growth at 0.01 µM: 103%
SF-539
  growth at 1 µM: 86%
SF-295
  GI50: 2.61 µM
  TGI: 10.3 µM
  CC50: > 100 µM
A549 [4]
  growth at 1 µM: 84%
NCI-H460 [5]
  growth at 100 µM: -36%
ACHN
  growth at 1 µM: 87%
K562 [6]
  growth at 100 µM: 2%
SK-MEL-28
  growth at 100 µM: -24%
RXF 393
  growth at 0.01 µM: 98%
MDA-MB-468
  growth at 0.01 µM: 101%
K562 [7]
  growth at 0.1 µM: 102%
M14
  GI50: 3.84 µM
  TGI: 12.5 µM
NCI-H23
  growth at 100 µM: -40%
UACC-257
  growth at 100 µM: -12%
SNB-75
  growth at 0.1 µM: 65%
CAKI-1
  growth at 1 µM: 54%
SK-OV-3 [8]
  growth at 0.1 µM: 102%
TK-10
  growth at 100 µM: -18%
SK-OV-3 [9]
  growth at 1 µM: 77%
COLO 205
  GI50: 1.69 µM
  TGI: 3.71 µM
HL-60(TB)
  growth at 0.01 µM: 106%
OVCAR-5
  growth at 0.1 µM: 102%
HT-29
  growth at 100 µM: -10%
A549 [10]
  growth at 0.1 µM: 94%
SK-MEL-5
  growth at 100 µM: -94%
NCI-H522
  growth at 0.1 µM: 98%
IGROV-1
  growth at 1 µM: 117%
NCI-H226 [11]
  growth at 0.01 µM: 99%
NCI-H226 [12]
  growth at 0.1 µM: 91%
HOP-92
  GI50: 2.54 µM
  TGI: 23.4 µM
  CC50: > 100 µM
MCF7
  growth at 100 µM: -15%
SF-268 [13]
  growth at 100 µM: -12%
OVCAR-3 [14]
  growth at 0.01 µM: 107%
